pIC50, pKi: −log10 of the molar value.
Legend:
[1] = target: T1, Lysine-specific histone demethylase 1A (Homo sapiens, UniProt O60341); assay: Inhibition of human GST-tagged LSD1 demethylase activity using H3K4 peptide as substrate by MALDI-TOF analysis
OCI-AML-3 = assay: Antiproliferative activity against human OCI-AML-3 cells assessed as reduction in cell viability incubated for 6 days by MTS assay; assay type: functional, cell-based; settings: OCI-AML-3, 144 h
THP-1 = assay: Antiproliferative activity against human THP-1 cells assessed as reduction in cell viability incubated for 6 days by MTS assay; assay type: functional, cell-based; settings: THP-1, 144 h
MAO-B [2] = target: T2, MAO-B (Homo sapiens, UniProt P27338); assay: Inhibition of recombinant MAO-B (unknown origin) at 1 uM incubated for 15 mins followed by luciferin substrate addition and measured after 60 mins by Promega-Glo analysis; settings: probe luciferin substrate, time 75 min
T2 sequence (P27338 whole entry): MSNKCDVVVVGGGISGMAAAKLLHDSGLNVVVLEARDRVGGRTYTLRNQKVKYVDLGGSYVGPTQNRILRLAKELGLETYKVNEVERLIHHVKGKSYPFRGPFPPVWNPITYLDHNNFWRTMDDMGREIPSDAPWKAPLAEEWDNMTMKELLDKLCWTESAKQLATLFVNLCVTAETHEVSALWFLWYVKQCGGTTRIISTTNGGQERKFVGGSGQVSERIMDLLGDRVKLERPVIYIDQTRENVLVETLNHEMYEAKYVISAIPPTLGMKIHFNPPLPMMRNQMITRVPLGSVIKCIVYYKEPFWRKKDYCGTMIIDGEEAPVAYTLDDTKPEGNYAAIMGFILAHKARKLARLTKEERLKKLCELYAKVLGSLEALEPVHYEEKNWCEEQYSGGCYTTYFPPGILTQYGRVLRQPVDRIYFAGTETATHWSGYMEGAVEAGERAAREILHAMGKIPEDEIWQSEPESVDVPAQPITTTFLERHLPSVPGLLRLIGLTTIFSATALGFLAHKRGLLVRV

U-937 = assay: Antiproliferative activity against human U-937 cells assessed as reduction in cell viability incubated for 6 days by MTS assay; assay type: functional, cell-based; settings: U-937, 144 h
K562 = assay: Antiproliferative activity against human K562 cells assessed as reduction in cell viability incubated for 6 days by MTS assay; assay type: functional, cell-based; settings: K562, 144 h
Raji = assay: Antiproliferative activity against human Raji cells assessed as reduction in cell viability incubated for 6 days by MTS assay; assay type: functional, cell-based; settings: 144 h
[3] = target: T1, Lysine-specific histone demethylase 1A; assay: Inhibition of LSD1 (unknown origin) using H3K4me2 peptide as substrate at 1 uM incubated for 30 mins by Amplex Red reagent based fluorescence analysis
MAO-A [4] = target: T3, MAO-A (Homo sapiens, UniProt P21397); assay: Inhibition of recombinant MAO-A (unknown origin) at 1 uM incubated for 15 mins followed by luciferin substrate addition and measured after 60 mins by Promega-Glo analysis; settings: probe luciferin substrate, time 75 min
T3 sequence (P21397 whole entry): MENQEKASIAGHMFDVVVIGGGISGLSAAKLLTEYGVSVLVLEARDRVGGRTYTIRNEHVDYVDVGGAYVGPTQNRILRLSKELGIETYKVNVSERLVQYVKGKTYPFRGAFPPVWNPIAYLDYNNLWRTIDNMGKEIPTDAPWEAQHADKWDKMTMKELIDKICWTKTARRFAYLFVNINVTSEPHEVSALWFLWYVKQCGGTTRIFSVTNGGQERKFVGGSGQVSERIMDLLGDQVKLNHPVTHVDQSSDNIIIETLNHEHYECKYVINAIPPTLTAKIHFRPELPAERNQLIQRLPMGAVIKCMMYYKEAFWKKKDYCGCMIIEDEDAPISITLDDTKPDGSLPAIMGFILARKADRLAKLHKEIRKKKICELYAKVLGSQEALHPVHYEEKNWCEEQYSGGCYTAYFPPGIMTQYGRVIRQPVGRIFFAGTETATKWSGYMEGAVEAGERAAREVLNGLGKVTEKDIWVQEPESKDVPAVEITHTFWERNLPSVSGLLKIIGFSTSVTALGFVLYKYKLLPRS

[5] = target: T1, Lysine-specific histone demethylase 1A; assay: Inhibition of LSD1 (unknown origin) by fluorescence analysis
MDA-MB-231 = assay: Antiproliferative activity against human MDA-MB-231 cells assessed as reduction in cell viability incubated for 48 hrs by MTT assay; assay type: functional, cell-based; settings: MDA-MB-231, 48 h
[6] = target: T4, Amine oxidase [flavin-containing] B (Homo sapiens, UniProt P27338); assay: Inhibition of recombinant MAO-B (unknown origin) by Spectrometric analysis
T4 sequence (P27338 whole entry): T2 sequence (P27338 whole entry)

[7] = target: T5, Amine oxidase [flavin-containing] A (Homo sapiens, UniProt P21397); assay: Inhibition of recombinant MAO-A (unknown origin) by Spectrometric analysis
T5 sequence (P21397 whole entry): T3 sequence (P21397 whole entry)

MAO-B [8] = target: T2, MAO-B; assay: Inhibition of recombinant MAO-B (unknown origin) at 1 uM by MAO-GloTM assay
[9] = target: T1, Lysine-specific histone demethylase 1A; assay: Inhibition of LSD1 (unknown origin) expressed in Escherichia coli BL21 (DE) using H3K4me2 peptide as substrate incubated for 30 mins by Amplex Red reagent based fluorescence analysis
MAO-A [10] = target: T3, MAO-A; assay: Inhibition of recombinant MAO-A (unknown origin) at 1 uM by MAO-GloTM assay
[11] = target: T1, Lysine-specific histone demethylase 1A; assay: Inhibition of LSD1 (unknown origin) by fluorescence based microplate reader analysis
[12] = Cytotoxicity against human GES1 cells assessed as reduction in cell viability incubated for 72 hrs by MTT assay; assay type: toxicity, cell-based
MGC-803 = assay: Antiproliferative activity against human MGC-803 cells assessed as reduction in cell viability incubated for 72 hrs by MTT assay; assay type: functional, cell-based
[13] = target: T5, Amine oxidase [flavin-containing] A; assay: Inhibition of recombinant MAO-A (unknown origin) by MAO-Glo assay
[14] = target: T4, Amine oxidase [flavin-containing] B; assay: Inhibition of recombinant MAO-B (unknown origin) by MAO-Glo assay
[15] = target: T1, Lysine-specific histone demethylase 1A; assay: Inhibition of recombinant LSD1 (unknown origin)
[16] = target: T1, Lysine-specific histone demethylase 1A; assay: Inhibition of LSD1 (unknown origin) using methylated histone H3K4 peptide as substrate by fluorescence analysis
[17] = target: T1, Lysine-specific histone demethylase 1A; assay: Inhibition of human LSD1 (172 to 833 residues) expressed in Escherichia coli Rosetta 2 strain using H3K4me1 (1 to 21 residues) as substrate by Amplex Red reagent based fluorescence assay
[18] = target: T1, Lysine-specific histone demethylase 1A; assay: Inhibition of LSD1 (unknown origin)

Structure (SMILES): COC(=O)c1cc(CN2CCN(C(=N)N)CC2)cc(C(=O)N2CCN(C(=O)c3ccc(C(=N)N)cc3)CC2)c1
- pIC50 [1]: 5.28

Structure (SMILES): C#CCSc1nc(Sc2nnnn2-c2ccccc2)c2nnn(Cc3ccccc3Cl)c2n1
- pIC50 (OCI-AML-3): 5.75
- pIC50 (THP-1): 6.35
- inhibition at 1.25 h, 1 µM (MAO-B [2]): < 10%
- pIC50 (U-937): 5.91
- pIC50 (K562): 5.89
- pIC50 (Raji): 5.85
- inhibition [3]: 95.6%
- inhibition at 1.25 h, 1 µM (MAO-A [4]): < 10%

Structure (SMILES): COc1c(O)cc2oc3cc(O)c(CC=C(C)C)c(O)c3c(=O)c2c1CC=C(C)C [MANGOSTIN]
- pIC50 [5]: 5.55
- pIC50 (MDA-MB-231): 4.89

Structure (SMILES): Cc1ccc(S(=O)(=O)Nc2cccc(C(=O)NCCc3ccc([N+](=O)[O-])cc3)c2)cc1
- pIC50 [6]: 3.65
- pIC50 [7]: 4.05

Structure (SMILES): COc1cc2c(cc1OC)-c1cc3ccc4c(c3c[n+]1CC2)OCO4
- inhibition at 1 µM (MAO-B [8]): < 30%
- pIC50 [9]: 6.85
- inhibition at 1 µM (MAO-A [10]): < 30%

Structure (SMILES): COc1c(O[C@H]2O[C@@H](C(=O)O)[C@H](O)[C@@H](O)[C@@H]2O)cc(O)c2c(=O)cc(-c3ccccc3)oc12
- pIC50 [11]: 5.53
- pIC50 (MDA-MB-231): 4.71

Structure (SMILES): COc1ccc(-c2coc3cc(O)cc(O)c3c2=O)cc1 [BIOCHANIN]
- IC50 at 72 h [12]: > 32 µM
- pIC50 (MGC-803): 5.53

Structure (SMILES): CC(C)(C)OC(=O)N1CCN(C(=S)SCC(=O)Nc2ccc(C(=O)/C=C/c3ccccc3F)cc2)CC1
- pIC50 [13]: < 4.70
- pIC50 [14]: < 4.70

Structure (SMILES): C=CC(=O)Nc1cc(Nc2nccc(-c3cn(C)c4ccccc34)n2)c(OC)cc1N(C)CCN(C)C [OSIMERTINIB]
- pIC50 [15]: 5.40

Structure (SMILES): CSCCc1nc(-c2cccc(N)c2)oc1C
- pIC50 [16]: 4.79

Structure (SMILES): Cc1ccc(S(=O)(=O)Nc2cccc(C(=O)NCCc3ccc(O)cc3)c2)cc1
- pIC50 [6]: 3.46
- pIC50 [7]: 3.96

Structure (SMILES): CSCC[C@@H]1NC(=O)[C@@H](NC(=O)[C@H](CCCNC(=N)N)NC(=O)[C@H](C)N)CCCCNC(=O)CC[C@@H](C(=O)N[C@@H](CCC(=O)O)C(=O)N[C@@H](C)C(=O)N[C@@H](CCCNC(=N)N)C(=O)N[C@@H](CCCCN)C(=O)N[C@@H](CO)C(=O)N[C@H](C(=O)O)[C@@H](C)O)NC1=O
- pKi [17]: 5.64

Structure (SMILES): COCc1cccc(NC(=O)c2cc3ccccc3n2C)c1COc1ccc(OC2CCNCC2)cc1
- pIC50 [6]: 3.86
- pIC50 [7]: 4.15

Structure (SMILES): COc1cc(CNC(=O)CCCC/C=C/C(C)C)ccc1O [CAPSAICIN]
- pIC50 [18]: 6.22

Structure (SMILES): O=C(NCCc1ccc([N+](=O)[O-])cc1)c1cccc(NS(=O)(=O)c2ccccc2)c1
- pIC50 [6]: 3.53
- pIC50 [7]: 4.19

Structure (SMILES): N=C(N)c1ccc(C(=O)N2CCN(C(=O)c3cc(CN4CCN(C(=N)N)CC4)cc([N+](=O)[O-])c3)CC2)cc1
- pIC50 [1]: 4.98

— ChEMBL document CHEMBL5226296, “Reversible Lysine Specific Demethylase 1 (LSD1) Inhibitors: A Promising Wrench to Impair LSD1” (J Med Chem, 2021)
